# Measurements published in patent US7402696B2, “Benzene compounds” (Ajinomoto Co., Inc., priority 2004, dated 2008).
# Biological target: T1, ACC (acetyl CoA carboxylase) purified from liver of male SD rat (Rattus norvegicus, UniProt P11497)
# T1 construct: applied to a monomeric avidin sepharose column, and washed with buffer B. The ACC was eluted with buffer B containing 2 mM d-biotin; from tissue; host or cells: liver of male SD rat
# Test: Measurement of ACC inhibition activity ([14C]-NaHCO3 incorporation)
# Assay type: biochemical
# Settings: ACC inhibition activity rate at 1 μM; Table 2-III, Mode 3 acetylene/oxadiazole/thiazole compounds (numbers = x-III); read-out: ACC Inhibition (%)
# Experimental: A male SD rat was deprived of food for two days and then fed a high-sucrose diet (component) for two days. While anesthetized with ether, the descending vena cava was cut upon, the animal was bled, and the liver was rapidly recovered. In an ice-cooled buffer solution A (225 mM mannitol, 75 mM sucrose, 10 mM Tris-HCl (pH 7.5), 0.05 mM EDTA, 5 mM potassium citrate, 2.5 mM MgCl2, 10 mg/L pepstatin A, 10 mg/L leupeptin, 1 mM PMSF), the liver was homogenized with a polytone homogenizer. A quantity of buffer A nine times the weight of the liver was added, the mixture was centrifuged for 10 minutes at 1,000 g, the supernatant was recovered, and the supernatant was centrifuged for another 10 minutes at 17,000 g.
# Ammonium sulfate was added to 35 percent saturation to the obtained supernatant. The mixture was stirred for 45 minutes and then centrifuged for 10 minutes at 17,000 g. Buffer solution B (100 mM Tris-HCl (pH 7.5), 500 mM NaCl, 1 mM EDTA, 0.1 mM DTT, 10 percent glycerol, 10 mg/L pepstatin A, 10 mg/L leupeptin, 0.5 mM PMSF) was added to the obtained precipitate and dissolved. The solution was then centrifuged for 20 minutes at 40,000 g. The supernatant was dialyzed overnight against buffer C (100 mM Tris-HCl (pH 7.5), 500 mM NaCl, 1 mM EDTA, 0.1 mM DTT, 5 percent glycerol).
# The dialyzed supernatant was passed through a […], applied to a monomeric avidin sepharose column, and washed with buffer B. The ACC was eluted with buffer B containing 2 mM d-biotin.
# (2 Measurement of ACC Inhibition Activity)
# The compounds synthesized in the above-described embodiments were dissolved in DMSO and charged to glass vials. 250 μL of ACC-containing reaction solution (40 mM Tris-HCl (pH 7.5), 40 mM MgCl2, 40 mM sodium citrate, and 2 mM DTT) was added. The mixture was heated for 30 minutes at 37° C. in a thermostatic chamber and then cooled with ice. To reaction solution 1 was added 250 μL of reaction solution 2 containing [14C]—NaHCO3 (40 mM Tris-HCl (pH 7.5), 2 mM DTT, 8 mM ATP, 0.5 mM acetyl CoA) and the mixture was heated for 10 minutes at 37° C. 100 μL of 1N HCl was added to stop the reaction. Water in the reaction solution was removed with a centrifugal evaporator, a scintillator was added, the solid component was dissolved, and the 14C radioactivity was measured with a liquid scintillation counter. The ACC inhibition activity of each compound was calculated from the following equation and converted to the ACC inhibition activity rate (%) at 1 μM.
# ACC inhibition rate (%)=(1−(a−c)/(b−c))×100 a. Radioactivity when test drug added b: Radioactivity when test drug not added c: Blank* *Reaction solution 1 to which 100 μL of 1N HCl was added before mixing reaction solution 1 and reaction solution 2
row,Structure (SMILES),inhibition at 1 µM [%]
1,O=C(O)c1ccc(C(=O)Nc2ccc(C#Cc3cccc(C(F)(F)F)c3)cc2)c(C(=O)O)c1 [compound 13],51
2,O=C1c2ccccc2C(=O)N1c1cccc(C#Cc2cccc(C(F)(F)F)c2)c1 [compound 18],60
3,O=C(O)c1cccc(-c2nc(-c3ccc(C#Cc4cccc(C(F)(F)F)c4)cc3)no2)c1 [compound 27],56
4,O=C(O)c1ccc(-c2nc(-c3ccc(C#Cc4cccc(C(F)(F)F)c4)cc3)no2)cc1 [compound 28],58
5,O=C(O)c1ccccc1-c1csc(-c2ccc(C#Cc3cccc(C(F)(F)F)c3)cc2)n1 [compound 35],50
6,O=C(O)c1ccc(-c2csc(-c3ccc(C#Cc4cccc(C(F)(F)F)c4)cc3)n2)cc1 [compound 36],54
7,O=C(O)C1C=CC=CC1c1nc(-c2ccc(-c3csc(-c4ccc(C(F)(F)F)cc4)n3)cc2)no1 (stereo not shown) [compound 49],62
8,O=C(O)c1ccc(-c2nc(-c3ccc(-c4csc(-c5ccc(C(F)(F)F)cc5)n4)cc3)no2)cc1 [compound 51],53
9,O=S(=O)(Nc1ccc(-c2csc(-c3ccc(C(F)(F)F)cc3)n2)cc1)c1cccc(S(=O)(=O)Nc2ccc(-c3csc(-c4ccc(C(F)(F)F)cc4)n3)cc2)c1 [compound 55],73

# Same assay, conditions: ACC inhibition activity rate at 1 μM; Table 3-I, Mode 1 quinoline compounds (numbers = x-I); read-out: ACC Inhibition (%)
row,Structure (SMILES),inhibition at 1 µM [%]
1,CCCCS(=O)(=O)NC(=O)c1ccccc1NC(=O)c1ccc2nc(-c3cccc(OC(F)(F)F)c3)ccc2c1 [compound 13],48
2,CC(C)c1ccc(S(=O)(=O)NC(=O)CC(NC(=O)c2ccc3nc(-c4cc(C(F)(F)F)cc(C(F)(F)F)c4)ccc3c2)c2ccccc2)cc1 (stereo not shown) [compound 49],62
3,CC(C)c1ccc(S(=O)(=O)NC(=O)C[C@H](NC(=O)c2ccc3nc(-c4cc(C(F)(F)F)cc(C(F)(F)F)c4)ccc3c2)C2CCCCC2)cc1 [compound 50],87
4,CCCCS(=O)(=O)NC(=O)CC1(NC(=O)c2ccc3nc(-c4cc(C(F)(F)F)cc(C(F)(F)F)c4)ccc3c2)CCCCC1 [compound 54],45
5,CCCCS(=O)(=O)NC(=O)C1CCCCCC[C@@H]1NC(=O)c1ccc2nc(-c3cc(C(F)(F)F)cc(C(F)(F)F)c3)ccc2c1 (stereo partly shown) [compound 55],70
6,CCCCS(=O)(=O)NC(=O)CC(C)(NC(=O)c1ccc2nc(-c3cc(C(F)(F)F)cc(C(F)(F)F)c3)ccc2c1)c1ccccc1 (stereo not shown) [compound 56],47
7,CCCCS(=O)(=O)NC(=O)C1CCc2ccccc2[C@@H]1NC(=O)c1ccc2nc(-c3cc(C(F)(F)F)cc(C(F)(F)F)c3)ccc2c1 (stereo partly shown) [compound 57],59
8,CCCCS(=O)(=O)NC(=O)[C@@H]1C[C@@H]2C[C@@H](C2(C)C)[C@]1(C)NC(=O)c1ccc2nc(-c3cc(C(F)(F)F)cc(C(F)(F)F)c3)ccc2c1 [compound 58],46
9,CCCCS(=O)(=O)NC(=O)[C@@H]1C[C@H]2C[C@H](C2(C)C)[C@@]1(C)NC(=O)c1ccc2nc(-c3cc(C(F)(F)F)cc(C(F)(F)F)c3)ccc2c1 [compound 59],74

# Same assay, conditions: ACC inhibition activity rate at 1 μM; Table 4-IV, Mode 4 benzenediamine compounds (numbers = x-IV); read-out: ACC Inhibition (%)
row,Structure (SMILES),inhibition at 1 µM [%]
1,CCCCCC(=O)NS(=O)(=O)c1ccccc1NC(=O)c1ccc(Nc2ccc(C(F)(F)F)cc2)c(NC(=O)c2cc(C(F)(F)F)cc(C(F)(F)F)c2)c1 [compound 16],86
2,CCCCCC(=O)NS(=O)(=O)c1ccccc1NC(=O)c1ccc(NCCC(C)C)c(NC(=O)c2cc(C(F)(F)F)cc(C(F)(F)F)c2)c1 [compound 20],85
3,CCCCCC(=O)NS(=O)(=O)c1ccccc1NC(=O)c1ccc(Nc2ccccc2)c(NC(=O)c2ccccc2)c1 [compound 23],74
4,CCCCCC(=O)NS(=O)(=O)c1ccccc1NC(=O)c1ccc(Nc2ccccc2)c(NC(=O)c2ccc(C(F)(F)F)cc2)c1 [compound 25],97
5,CCCCCC(=O)NS(=O)(=O)c1ccccc1NC(=O)c1ccc(Nc2ccccc2)c(NC(=O)c2cc(C(F)(F)F)cc(C(F)(F)F)c2)c1 [compound 26],78
6,CCCCCC(=O)NS(=O)(=O)c1ccccc1NC(=O)c1ccc(Nc2ccc(C(F)(F)F)cc2)c(NC(=O)c2cccc(C(F)(F)F)c2)c1 [compound 27],91
7,CCCCCC(=O)NS(=O)(=O)c1ccccc1NC(=O)c1ccc(Nc2ccc(C(F)(F)F)cc2)c(NC(=O)c2ccc(C(F)(F)F)cc2)c1 [compound 28],92
8,CCCCCC(=O)NS(=O)(=O)c1ccccc1NC(=O)c1ccc(Nc2ccc(C(F)(F)F)cc2)c(NC(=O)C2CCCCC2)c1 [compound 31],72
9,CCCCCC(=O)NS(=O)(=O)c1ccccc1NC(=O)c1ccc(Nc2ccc(C(F)(F)F)cc2)c(NC(=O)c2ccncc2)c1 [compound 33],61
10,CCCCCC(=O)NS(=O)(=O)c1ccccc1NC(=O)c1ccc(Nc2ccc(C(F)(F)F)cc2)c(NC(=O)c2cccs2)c1 [compound 34],67
11,CCCCCC(=O)NS(=O)(=O)c1ccccc1NC(=O)c1ccc(Nc2ccc(C(F)(F)F)cc2)c(NC(=O)OCc2ccccc2)c1 [compound 35],91
12,CC(C)CCNc1ccc(-c2noc(-c3cccc(C(=O)NS(=O)(=O)c4ccccc4)c3)n2)cc1[N+](=O)[O-] [compound 36],87
13,CC(C)CCN(C)c1ccc(-c2noc(-c3cccc(C(=O)NS(=O)(=O)c4ccccc4)c3)n2)cc1[N+](=O)[O-] [compound 37],86
14,CC(C)CCN(C)c1ccc(-c2noc(-c3cccc(C(=O)NS(=O)(=O)c4ccccc4)c3)n2)cc1NC(=O)c1cccc(C(F)(F)F)c1 [compound 39],99
15,CC(C)CCN(C)c1ccc(-c2noc(-c3cccc(C(=O)NS(=O)(=O)c4ccccc4)c3)n2)cc1NC(=O)c1ccccc1 [compound 40],87
16,CC(C)CCN(C)c1ccc(-c2noc(-c3cccc(C(=O)NS(=O)(=O)c4ccccc4)c3)n2)cc1NC(=O)C1CCCCC1 [compound 41],85
17,CCC(CC)C(=O)Nc1cc(-c2noc(-c3cccc(C(=O)NS(=O)(=O)c4ccccc4)c3)n2)ccc1N(C)CCC(C)C [compound 42],76
18,CC(C)CCN(C)c1ccc(-c2noc(-c3cccc(C(=O)NS(=O)(=O)c4ccccc4)c3)n2)cc1NC(=O)c1cccs1 [compound 43],83
19,CC(C)CCN(C)c1ccc(-c2noc(-c3cccc(C(=O)NS(=O)(=O)c4ccccc4)c3)n2)cc1NC(=O)OCc1ccccc1 [compound 44],100
20,CC(C)CCN(C)c1ccc(-c2noc(-c3cccc(C(=O)NS(=O)(=O)c4ccccc4)c3)n2)cc1NCc1ccccc1 [compound 45],100
21,CC(C)CCN(C)c1ccc(-c2noc(-c3cccc(C(=O)NS(=O)(=O)c4ccccc4)c3)n2)cc1NCC1CCCCC1 [compound 47],100
22,CC(C)CCN(C)c1ccc(-c2noc(-c3cccc(C(=O)NS(=O)(=O)c4ccccc4)c3)n2)cc1NC(C)C [compound 48],87
23,CC(C)CCN(C)c1ccc(-c2nc(-c3cccc(C(=O)NS(=O)(=O)c4ccccc4)c3)no2)cc1[N+](=O)[O-] [compound 51],76
24,O=C(NS(=O)(=O)c1ccccc1)c1cccc(-c2noc(-c3ccc(NC4CC4)c([N+](=O)[O-])c3)n2)c1 [compound 52],59
25,CC(C)CCN(C)c1ccc(C(=O)NC(CC(=O)NS(=O)(=O)c2ccccc2)C2CCCCC2)cc1NCc1ccccc1 (stereo not shown) [compound 54],87
26,CC(C)CCN(C)c1ccc(C(=O)NC(CC(=O)NS(=O)(=O)c2ccccc2)C2CCCCC2)cc1NCC1CCCCC1 (stereo not shown) [compound 55],90
27,CC(C)CCN(C)c1ccc(-c2noc(-c3cccc(C(=O)NS(=O)(=O)c4ccccc4)c3)n2)cc1N(CCCc1ccccc1)CCCc1ccccc1 [compound 56],100
28,CC(C)CCN(C)c1ccc(-c2noc(-c3cccc(C(=O)NS(=O)(=O)c4ccccc4)c3)n2)cc1NCC1=CCCCC1 [compound 57],100
